Structures can show the parent of a compound that is named as a salt. Where two headings read alike, the source gives them in different places.
Experiments:
SARS-CoV-2 [1] = experiment: microbe, parasite or virus in culture; format: cell-based; conditions: for Emax: Severe acute respiratory syndrome coronavirus 2, Calu-3, 48 h, curve plateau at infinite concentration, read-out: Calu-3 CoV-2 Sinf Average; for EC50: Severe acute respiratory syndrome coronavirus 2, Calu-3, detail block, read-out: Calu-3 CoV-2 EC50 GeoMean; for Calu-3 SI: selectivity index, uninfected Calu-3 CC50 / Calu-3 SARS-CoV-2 EC50
in vitro = conditions: human, Calu-3 uninfected cytotoxicity CC50 GeoMean
SARS-CoV-2 [2] = experiment: microbe, parasite or virus in culture; format: cell-based; conditions: for Emax: Severe acute respiratory syndrome coronavirus 2, HeLa-ACE2, 10 h, curve plateau at infinite concentration, read-out: HeLa-ACE2 TOA CoV-2 Sinf Average; for EC50: Severe acute respiratory syndrome coronavirus 2, HeLa-ACE2, detail block, read-out: HeLa-ACE2 TOA CoV-2 EC50 GeoMean
[3] = Uninfected HeLa-ACE2 24 h live/dead cytotoxicity counter screen; format: cell-based, human; conditions: human, uninfected HeLa-ACE2 cells, detail block; read-out: HeLa-ACE2 uninfected cytotoxicity CC50 GeoMean
HeLa-ACE2 cells [4] = experiment: as above; format: cell-based, human; conditions: curve plateau at infinite concentration
HeLa-ACE2 cells [5] = experiment: cells; conditions: Homo sapiens; for EC50: HeLa-ACE2, read-out: HeLa-ACE2 cell count EC50 GeoMean, detail block; for Emax: HeLa-ACE2, 24 h, read-out: HeLa-ACE2 cell count Sinf Average
SARS-CoV-2 [6] = experiment: microbe, parasite or virus in culture; format: cell-based; conditions: for Emax: Severe acute respiratory syndrome coronavirus 2, HeLa-ACE2, 24 h, curve plateau at infinite concentration, read-out: HeLa-ACE2 CoV-2 Sinf Average; for EC50: Severe acute respiratory syndrome coronavirus 2, HeLa-ACE2, detail block, read-out: HeLa-ACE2 CoV-2 EC50 GeoMean
Calu-3 cells [7] = conditions: for Calu-3 uninfected cytotoxicity Sinf Average: human, 48 h
HepG2 [8] = conditions: human, 72 h
SARS-CoV-2 [9] = format: cell-based; conditions: combination with remdesivir
HeLa-ACE2 cells [10] = experiment: cells; format: cell-based, human; conditions: Homo sapiens, HeLa-ACE2; read-out: HeLa-ACE2 TOA cell count EC50 GeoMean
HEK293T [11] = conditions: human, 72 h
Calu-3 cells [12] = experiment: cells; conditions: Homo sapiens; for Emax: Calu-3, 48 h, read-out: Calu-3 cell count Sinf Average; for EC50: Calu-3, read-out: Calu-3 cell count EC50 GeoMean, detail block
[13] = HepG2 72 h CellTiter-Glo cytotoxicity; conditions: human, HepG2 cells
HepG2 [14] = experiment: HepG2 72 h CellTiter-Glo cytotoxicity; conditions: 72 h
[15] = Uninfected Calu-3 48 h Cell-Titer Glo cytotoxicity counter screen; conditions: human, uninfected Calu-3 cells, Calu-3 uninfected cytotoxicity CC50 GeoMean, detail block
Calu-3 cells [16] = experiment: as above; conditions: curve plateau at infinite concentration
[17] = HEK293T 72 h CellTiter-Glo cytotoxicity; conditions: human, HEK293T cells
HEK293T [18] = experiment: HEK293T 72 h CellTiter-Glo cytotoxicity; conditions: 72 h
[19] = TOA EC50 / HeLa-ACE2 SARS-CoV-2 EC50
[20] = selectivity index, uninfected HeLa-ACE2 CC50 / SARS-CoV-2 EC50

Row | SMILES | Emax (SARS-CoV-2 [1]) | EC50 (SARS-CoV-2 [1]) | CC50 at 48 h (in vitro) | Emax (SARS-CoV-2 [2]) | EC50 (SARS-CoV-2 [2]) | TOA:HeLa-ACE2 EC50 Ratio (SARS-CoV-2 [2]; [19]) | CC50 at 24 h [3] | HeLa-ACE2 uninfected cytotoxicity Sinf Average (HeLa-ACE2 cells [4]) | EC50 (HeLa-ACE2 cells [5]) | Emax (SARS-CoV-2 [6]) | EC50 (SARS-CoV-2 [6]) | HeLa-ACE2 SI (SARS-CoV-2 [6]; [20]) | uninfected Calu-3 CC50 (Calu-3 cells [7]) | Calu-3 uninfected cytotoxicity Sinf Average (Calu-3 cells [7]) | HepG2 72-hour cytotoxicity Sinf Average (HepG2 [8]) | EC50 (HeLa-ACE2 cells [10]) | HEK293T 72-hour cytotoxicty Sinf Average (HEK293T [11]) | Emax (Calu-3 cells [12]) | EC50 (Calu-3 cells [12]) | Calu-3 SI (SARS-CoV-2 [1]) | other results
1 | CN1CCN(c2ccc(C(=O)NCc3cnc(C#N)nc3NCC(C)(C)C)cc2)CC1 [Dutacatib] | 96% | > 9.98 µM | > 29.9 µM | 100% | > 9.36 µM | 3.480 | > 36.1 µM | -100% | > 9.59 µM | 101% | 2.69 µM | > 13.43 | > 29.867 ×÷ 1.001 (n=3) μM | -100% | -100% | > 9.59 µM | -100% | 100% | > 9.98 µM |  | HeLa-ACE2 synergy score with remdesivi (SARS-CoV-2 [9]): 2.955 δ
2 | CCc1ccc2c(c1)N(CC(C)CN(C)C)c1ccccc1S2 (centres unmarked) [Ethylisobutrazine hydrochloride] | 100% | > 9.98 µM |  | 100% | 3.77 µM |  | 20.9 µM | -100% | > 9.59 µM | 100% | 2 µM | 10.48 |  |  |  | > 9.59 µM |  |  | > 9.98 µM | 1.57 | TOA:HeLa-ACE2 EC50 Ratio (SARS-CoV-2 [2]): 1.889; Emax (HeLa-ACE2 cells [5]): 100%; CC50 at 72 h [13]: 14.1 µM; HepG2 72-hour cytotoxicity Sinf Average (HepG2 [14]): -100%; CC50 at 48 h [15]: 15.7 µM; Calu-3 uninfected cytotoxicity Sinf Average (Calu-3 cells [16]): -100%; CC50 at 72 h [17]: 10.3 µM; HEK293T 72-hour cytotoxicty Sinf Average (HEK293T [18]): -104%
3 | N#Cc1c(N)nc(N)nc1N[C@H](c1nc2c(F)ccc(Cl)c2c(=O)n1-c1cccnc1)C1CC1 [GS-9901] |  | > 9.98 µM | > 29.9 µM |  | > 9.59 µM | 2.519 | > 31.1 µM | -100% | > 9.59 µM | 100% | 3.81 µM |  | > 29.867 ×÷ 1.001 (n=3) μM |  | -100% | > 9.59 µM | -97% | -100% | > 9.98 µM |  | Emax (HeLa-ACE2 cells [5]): 100%; HeLa-ACE2 SI (SARS-CoV-2 [6]): > 8.17
4 | COC(CNCC(C)C)COc1c(C)csc1C(=O)CCc1ccccc1 (centres unmarked) [LG-6-101] | 83% | > 9.98 µM | > 29.1 µM | 100% | > 9.18 µM | 2.655 | > 35.6 µM | -100% | > 9.59 µM | 100% | 3.46 µM |  | > 29.079 ×÷ 1.048 (n=3) μM | -100% | -100% | > 9.59 µM | -100% | 100% | > 9.98 µM | 2.91 | 
5 | O=C(CCCN1CCN(c2ccc(F)cc2)CC1)NC1c2ccccc2CSc2ccccc21 (centres unmarked) [Monatepil] | 100% | > 9.98 µM | > 29.9 µM | 100% | 5.71 µM | 0.732 | > 39 µM | -100% | > 9.6 µM | 100% | > 7.79 µM | > 5.01 | > 29.9 ×÷ 1.002 (n=4) μM | -100% |  | > 9.61 µM | -46% | -100% | > 9.98 µM |  | 
6 | N#Cc1ccc2c(c1)[C@H]1CN(CCCCNC(=O)c3ccc(-c4ccccc4)cc3)C[C@@H]1CO2 [S-33084] |  | > 9.98 µM | > 22.8 µM | 100% | 3.93 µM | 1.005 | > 24.8 µM | -100% | > 9.59 µM | 100% | 3.91 µM | > 6.34 | > 22.75 ×÷ 1.601 (n=3) μM | -100% | -100% | > 9.59 µM | -100% |  | > 9.98 µM | 2.28 | 
